Measured values taken from patent US7718688B2, “Nitrobenzindoles and their use in cancer therapy” (Auckland Uniservices Limited, priority 2004, dated 2010).

Tests used:
[1] = tested on: HT29: human colon cancer cell line; assay: Proliferation IC50 assay, oxic/hypoxic, HT29; assay type: cell-based; details: for IC50: 4 h exposure under aerobic conditions; for HCR (hypoxic cytotoxicity ratio) HT29: IC50(aerobic)/IC10(hypoxic); for HCR HT29: IC50(aerobic)/IC50(hypoxic)
[2] = tested on: SKOV3: human ovarian carcinoma cell line; assay: Proliferation IC50 assay, oxic/hypoxic, SKOV3; assay type: cell-based; details: for IC50: 4 h exposure under aerobic conditions; for HCR (hypoxic cytotoxicity ratio) SKOV3: IC50(aerobic)/IC10(hypoxic); for HCR SKOV3: IC50(aerobic)/IC50(hypoxic)
[3] = One-electron reduction potential E(1) by pulse radiolysis; assay type: physicochemical; details: determined by pulse radiolysis

With `COC(=O)c1ccc2c3c(cc([N+](=O)[O-])c2c1)N(C(=O)c1cc2cc(OCCN(C)C)ccc2[nH]1)CC3CCl` (stereo not drawn) [Compound 14, Methyl 1-(chloromethyl)-3-{5-[2-(dimethylamino)ethoxy]indol-2-carbonyl}-5-nitro-1,2-dihydro-3H-benzo[e]indole-7-carboxylate] the IC50 ([1]; Homo sapiens, HT-29, Table 3) was 0.32 µM, the “HCR (hypoxic cytotoxicity ratio) HT29” value ([1]; Table 3) was 1.2 and the IC50 ([2]; Homo sapiens, SK-OV-3, Table 3) was 0.44 µM. The “HCR (hypoxic cytotoxicity ratio) SKOV3” value ([2]; Table 3) was 1.9 and the “E(1): one-electron reduction potential” value [3] was −429 ± 8 mV.

With `CN(C)CCOc1ccc2[nH]c(C(=O)N3CC(CCl)c4c3cc([N+](=O)[O-])c3c([N+](=O)[O-])cccc43)cc2c1` (stereo not drawn) [Compound 2, 1-(Chloromethyl)-3-(5-[2-(dimethylamino)ethoxy]indol-2-carbonyl)-5,6-dinitro-1,2-dihydro-3H-benzo[e]indole] the IC50 ([1]; Homo sapiens, HT-29, Table 3) was 2.8 µM, the “HCR (hypoxic cytotoxicity ratio) HT29” value ([1]; Table 3) was 2.2 and the IC50 ([2]; Homo sapiens, SK-OV-3, Table 3) was 4.1 µM. The “HCR (hypoxic cytotoxicity ratio) SKOV3” value ([2]; Table 3) was 2.9 and the “E(1): one-electron reduction potential” value [3] was −467 ± 8 mV.

In the case of `CN(C)CCOc1ccc2[nH]c(C(=O)N3CC(CCl)c4c3cc([N+](=O)[O-])c3ccc(S(C)(=O)=O)cc43)cc2c1` (stereo not drawn) [Compound 47, 1-(Chloromethyl)-3-{5-[2-(dimethylamino)ethoxy]indol-2-carbonyl}-8-(methylsulfonyl)-5-nitro-1,2-dihydro-3H-benzo[e]indole], the IC50 ([1]; Homo sapiens, HT-29, Table 3) is reported as 0.98 µM, the “HCR (hypoxic cytotoxicity ratio) HT29” value ([1]; Table 3) is reported as 1.2 and the IC50 ([2]; Homo sapiens, SK-OV-3, Table 3) is reported as 1.9 µM. For the same compound, the “HCR (hypoxic cytotoxicity ratio) SKOV3” value ([2]; Table 3) was 2.7 and the “E(1): one-electron reduction potential” value [3] was −420 ± 8 mV.

In the case of `CN(C)CCOc1ccc2[nH]c(C(=O)N3CC(CCl)c4c3cc([N+](=O)[O-])c3cccc([N+](=O)[O-])c43)cc2c1` (stereo not drawn) [Compound 52, 1-(Chloromethyl)-3-{5-[2-(dimethylamino)ethoxy]indol-2-carbonyl}-5,9-dinitro-1,2-dihydro-3H-benzo[e]indole], the IC50 ([1]; Homo sapiens, HT-29, Table 3) is reported as 1.4 µM, the “HCR (hypoxic cytotoxicity ratio) HT29” value ([1]; Table 3) is reported as 1.3 and the IC50 ([2]; Homo sapiens, SK-OV-3, Table 3) is reported as 1.2 µM. For the same compound, the “HCR (hypoxic cytotoxicity ratio) SKOV3” value ([2]; Table 3) was 1.5 and the “E(1): one-electron reduction potential” value [3] was −477 ± 7 mV.

For `CN(C)CCOc1ccc2[nH]c(C(=O)N3CC(CCl)c4c3cc([N+](=O)[O-])c3cc(S(C)(=O)=O)ccc43)cc2c1` (stereo not drawn) [Compound 24, 1-(Chloromethyl)-3-{5-[2-(dimethylamino)ethoxy]indol-2-carbonyl}-7-(methylsulfonyl)-5-nitro-1,2-dihydro-3H-benzo[e]indole], the IC50 ([1]; Homo sapiens, HT-29, Table 3) was 0.97 µM, the “HCR (hypoxic cytotoxicity ratio) HT29” value ([1]; Table 3) was 4.0 and the IC50 ([2]; Homo sapiens, SK-OV-3, Table 3) was 1.3 µM. For the same compound, the “HCR (hypoxic cytotoxicity ratio) SKOV3” value ([2]; Table 3) was 11 and the “E(1): one-electron reduction potential” value [3] was −362 ± 8 mV.

For `COc1cc2cc(C(=O)N3CC(CCl)c4c3cc(N)c3cc(S(N)(=O)=O)ccc43)[nH]c2c(OC)c1OC` (stereo not drawn) [Compound 59, 5-Amino-1-(chloromethyl)-3-(5,6,7-trimethoxyindol-2-carbonyl)-1,2-dihydro-3H-benzo[e]indole-7-sulfonamide], the IC50 ([1]; Homo sapiens, HT-29, Table 4) was 0.086 µM, the “HCR HT29” value ([1]; Table 4) was 1.1 and the melting point was 240 to 245 °C (dec.). The IC50 ([2]; Homo sapiens, SK-OV-3, Table 4) was 0.041 µM and the “HCR SKOV3” value ([2]; Table 4) was 1.3.

With `COc1cc2cc(C(=O)N3CC(CCl)c4c3cc([N+](=O)[O-])c3c(C(C)=O)cccc43)[nH]c2c(OC)c1OC` (stereo not drawn) [Compound 3, 6-Acetyl-1-(chloromethyl)-5-nitro-3-(5,6,7-trimethoxyindol-2-carbonyl)-1,2-dihydro-3H-benzo[e]indole] the IC50 ([1]; Homo sapiens, HT-29, Table 3) was 0.68 µM, the “HCR (hypoxic cytotoxicity ratio) HT29” value ([1]; Table 3) was 2.0 and the melting point was 180 to 183 °C. The IC50 ([2]; Homo sapiens, SK-OV-3, Table 3) was 0.5 µM and the “HCR (hypoxic cytotoxicity ratio) SKOV3” value ([2]; Table 3) was 3.4.

In the case of `COc1ccc(/C=C/C(=O)N2CC(CCl)c3c2cc([N+](=O)[O-])c2cc(S(N)(=O)=O)ccc32)cc1O` (stereo not drawn) [Compound 27, 1-(Chloromethyl)-3-[(2E)-3-(3-hydroxy-4-methoxyphenyl)-2-propenoyl]-5-nitro-1,2-dihydro-3H-benzo[e]indole-7-sulfonamide], the IC50 ([1]; Homo sapiens, HT-29, Table 3) is reported as 2.4 µM, the “HCR (hypoxic cytotoxicity ratio) HT29” value ([1]; Table 3) is reported as 1.8 and the melting point is reported as 220 to 225 °C. For the same compound, the IC50 ([2]; Homo sapiens, SK-OV-3, Table 3) was 13 µM and the “HCR (hypoxic cytotoxicity ratio) SKOV3” value ([2]; Table 3) was 31.

In the case of `CN(C)CCOc1ccc2[nH]c(C(=O)N3CC(CCl)c4c3cc(N)c3cc(C(N)=O)ccc43)cc2c1` (stereo not drawn) [Compound 55, 5-Amino-1-(chloromethyl)-3-{5-[2-(dimethylamino)ethoxy]indol-2-carbonyl}-1,2-dihydro-3H-benzo[e]indole-7-carboxamide], the IC50 ([1]; Homo sapiens, HT-29, Table 4) is reported as 0.061 µM, the “HCR HT29” value ([1]; Table 4) is reported as 1.4 and the melting point is reported as 232 to 236 °C (dec.). The IC50 ([2]; Homo sapiens, SK-OV-3, Table 4) was 0.013 µM and the “HCR SKOV3” value ([2]; Table 4) was 1.0.

With `CN(C)CCOc1ccc2[nH]c(C(=O)N3CC(CCl)c4c3cc([N+](=O)[O-])c3ccc(C#N)cc43)cc2c1` (stereo not drawn) [Compound 45] the IC50 ([1]; Table 3) was 1.4 µM, the “HCR (hypoxic cytotoxicity ratio) HT29” value ([1]; Table 3) was 1.4 and the IC50 ([2]; Table 3) was 1.2 µM. For the same compound, the “HCR (hypoxic cytotoxicity ratio) SKOV3” value ([2]; Table 3) was 1.5 and the “E(1): one-electron reduction potential” value [3] was −419 ± 8 mV.

For `COc1cc2cc(C(=O)N3CC(CCl)c4c3cc([N+](=O)[O-])c3cc(S(C)(=O)=O)ccc43)[nH]c2c(OC)c1OC` (stereo not drawn) [Compound 23, 1-(Chloromethyl)-7-(methylsulfonyl)-5-nitro-3-(5,6,7-trimethoxyindol-2-carbonyl)-1,2-dihydro-3H-benzo[e]indole], the IC50 ([1]; Homo sapiens, HT-29, Table 3) was 14 µM, the “HCR (hypoxic cytotoxicity ratio) HT29” value ([1]; Table 3) was 2.0 and the melting point was 296 to 297 °C (dec.). For the same compound, the IC50 ([2]; Homo sapiens, SK-OV-3, Table 3) was 17 µM and the “HCR (hypoxic cytotoxicity ratio) SKOV3” value ([2]; Table 3) was 1.9.

For `COC(=O)c1ccc2c3c(cc([N+](=O)[O-])c2c1)N(C(=O)c1cc2cc(OC)c(OC)c(OC)c2[nH]1)CC3CCl` (stereo not drawn) [Compound 13, Methyl 1-(chloromethyl)-3-(5,6,7-trimethoxyindol-2-carbonyl)-5-nitro-1,2-dihydro-3H-benzo[e]indole-7-carboxylate], the IC50 ([1]; Homo sapiens, HT-29, Table 3) was 1.9 µM, the “HCR (hypoxic cytotoxicity ratio) HT29” value ([1]; Table 3) was 3.2 and the melting point was 256 to 257 °C. For the same compound, the IC50 ([2]; Homo sapiens, SK-OV-3, Table 3) was 1.1 µM and the “HCR (hypoxic cytotoxicity ratio) SKOV3” value ([2]; Table 3) was 4.0.

For `COc1ccc(/C=C/C(=O)N2CC(CCl)c3c2cc([N+](=O)[O-])c2cc(S(=O)(=O)NCCO)ccc32)cc1` (stereo not drawn) [Compound 37, 1-(Chloromethyl)-N-(2-hydroxyethyl)-3-[(E)-4-methoxycinnamoyl]-5-nitro-1,2-dihydro-3H-benzo[e]indole-7-sulfonamide], the IC50 ([1]; Homo sapiens, HT-29, Table 3) was 4.8 µM, the “HCR (hypoxic cytotoxicity ratio) HT29” value ([1]; Table 3) was 1.3 and the melting point was 250 to 251 °C. For the same compound, the IC50 ([2]; Homo sapiens, SK-OV-3, Table 3) was 4.7 µM and the “HCR (hypoxic cytotoxicity ratio) SKOV3” value ([2]; Table 3) was 3.4.

With `CN(C)CCOc1ccc2[nH]c(C(=O)N3CC(S(=O)(=O)NCCO)c4c3cc(N)c3c(CCl)cccc43)cc2c1` (stereo not drawn) [Compound 62, 5-Amino-6-(chloromethyl)-3-{5-[2-(dimethylamino)ethoxy]indol-2-carbonyl}-N-(2-hydroxyethyl)-1,2-dihydro-3H-benzo[e]indole-1-sulfonamide] the IC50 ([1]; Homo sapiens, HT-29, Table 4) was 0.094 µM, the “HCR HT29” value ([1]; Table 4) was 1.0 and the melting point was 225 to 230 °C. The IC50 ([2]; Homo sapiens, SK-OV-3, Table 4) was 0.034 µM and the “HCR SKOV3” value ([2]; Table 4) was 1.1.

In the case of `CNS(=O)(=O)c1ccc2c3c(cc(N)c2c1)N(C(=O)c1cc2cc(OCCN(C)C)ccc2[nH]1)CC3CCl` (stereo not drawn) [Compound 61, 5-Amino-1-(chloromethyl)-3-{5-[2-(dimethylamino)ethoxy]indol-2-carbonyl}-N-methyl-1,2-dihydro-3H-benzo[e]indole-7-sulfonamide], the IC50 ([1]; Homo sapiens, HT-29, Table 4) is reported as 0.024 µM, the “HCR HT29” value ([1]; Table 4) is reported as 1.2 and the melting point is reported as 260 to 265 °C (dec.). For the same compound, the IC50 ([2]; Homo sapiens, SK-OV-3, Table 4) was 0.02 µM and the “HCR SKOV3” value ([2]; Table 4) was 1.8.
